{"source": "patent US20190274968A1", "about": "(priority 2016, published 2019)", "data": [{"test_system": "luciferase", "type": "in vivo, BALB/c mice", "conditions": "LNP with the indicated cationic lipid; 3 μg Luciferase mRNA-LNP intradermal", "values": [{"smiles": "CCCCCCCCC(CCCCCC)C(=O)OCCCCCCN(CCCCCO)CCCCCCOC(=O)C(CCCCCC)CCCCCCCC", "note": "(stereo not drawn) [III-7]", "delivery of mRNA (expression of luciferase measured by IVIS)": "effectively delivered"}, {"smiles": "CCCCCCCC(=O)N(CCCN(C)C)C(CCCCCCCCC(=O)OC(CCCCCC)CCCCCC)CCCCCCCCC(=O)OC(CCCCCC)CCCCCC", "note": "[II-10]", "delivery of mRNA (expression of luciferase measured by IVIS)": "effectively delivered"}, {"smiles": "CCCCCCCCC(=O)N(CCCN(C)C)C(CCCCCCCCC(=O)OC(CCCCCC)CCCCCC)CCCCCCCCC(=O)OC(CCCCCC)CCCCCC", "note": "[II-11]", "delivery of mRNA (expression of luciferase measured by IVIS)": "effectively delivered"}, {"smiles": "CCCCCCCCC(CCCCCC)COC(=O)CCCCCCCCC(CCCCCCCCC(=O)OCC(CCCCCC)CCCCCCCC)N(CCCN(C)C)C(=O)CCCCCCC", "note": "(stereo not drawn) [II-12]", "delivery of mRNA (expression of luciferase measured by IVIS)": "effectively delivered"}, {"smiles": "CCCCCCCCC(CCCCCC)C(=O)OCCCCCCN(CCCCCCOC(=O)C(CCCCCC)CCCCCCCC)CCN(C)C", "note": "(stereo not drawn) [Compound I-5]", "delivery of mRNA (expression of luciferase measured by IVIS)": "effectively delivered"}, {"smiles": "CCCCCCCCC(=O)N(CCCN(C)C)C(CCCCCCCCC(=O)OCC(CCCC)CCCCCC)CCCCCCCCC(=O)OCC(CCCC)CCCCCC", "note": "(stereo not drawn) [II-9]", "delivery of mRNA (expression of luciferase measured by IVIS)": "effectively delivered"}, {"smiles": "CCCCCCCCC(CCCCCC)C(=O)OCCCCCCN(CCCCO)CCCCCCOC(=O)C(CCCCCC)CCCCCCCC", "note": "(stereo not drawn) [III-3]", "delivery of mRNA (expression of luciferase measured by IVIS)": "effectively delivered"}, {"smiles": "CCCCCCCCC(CCCCCC)C(=O)OCCCCCCCCCN(CCCCCCCCCOC(=O)C(CCCCCC)CCCCCCCC)CCN(C)C", "note": "(stereo not drawn) [Compound I-6]", "delivery of mRNA (expression of luciferase measured by IVIS)": "effectively delivered"}, {"smiles": "CCCCCCCCC(=O)N(CCCN1CCCC1)C(CCCCCCCCC(=O)OCC(CCCC)CCCCCC)CCCCCCCCC(=O)OCC(CCCC)CCCCCC", "note": "(stereo not drawn) [II-36]", "delivery of mRNA (expression of luciferase measured by IVIS)": "effectively delivered"}]}]}
